2 compounds from patent US20230398130A1, “METHODS AND COMPOSITIONS FOR DIFFERENTIATING STEM CELLS” (Massachusetts Institute of Technology, priority 2020, published 2023) can be followed below.

Assay [1] has as its system ISC-enriched organoids. Description: Primary screen, 384-well 2.5-D organoid differentiation (ENR+CD, 6 days): basal lysozyme secretion (LYZ.NS). The format is cell-based, murine. The following applies: for Dose.FC.LYZ.NS (log 2 fold change, basal lysozyme secretion): vs plate median. From the text: (§1) High-throughput screening.
The test system of assay [2] is ISC-enriched organoids. Put plainly: Primary screen, 384-well 2.5-D organoid differentiation (ENR+CD, 6 days): carbachol-induced lysozyme secretion (LYZ.S). The note with it: vs plate median. The format is cell-based, murine.
Source text: as §1

Assay [3] concerns ISC-enriched organoids. Description: Primary screen, 384-well 2.5-D organoid differentiation (ENR+CD, 6 days, Target Selective Inhibitor Library, vs whole-plate median): ATP (CellTiter-Glo 3D, CTG). The following applies: for Dose.FC.CTG (log 2 fold change, ATP): vs plate median. On the technique in general: In ATP-based viability assays light output follows the ATP content of the culture.

For `COc1cc2c(Nc3ccc(NC(=O)c4ccccc4)cc3)ncnc2cc1OCCCN1CCOCC1` [ZM 447439], the “Z.LYZ.NS (standard z score)” value in the assay on ISC-enriched organoids [1] (dose 0.08 uM) is on record as 0.896; with ISC-enriched organoids [1] (dose 0.40 uM), 0.932; in the assay with ISC-enriched organoids [1] (dose 2.00 uM), 0.456; with ISC-enriched organoids [1] (dose 10.00 uM), −0.695. The “Dose.FC.LYZ.NS (log 2 fold change, basal lysozyme secretion)” value in the assay on ISC-enriched organoids [1] (dose 0.08 uM) is given as 0.103; in the assay with ISC-enriched organoids [1] (dose 0.40 uM), 0.107; with ISC-enriched organoids [1] (dose 2.00 uM), 0.052; in the assay on ISC-enriched organoids [1] (dose 10.00 uM), −0.080. For the same compound, the “Dose.FC.LYZ.S (log 2 fold change, carbachol-induced lysozyme secretion)” value in the assay on ISC-enriched organoids [2] (dose 0.08 uM) was 0.171; in the assay with ISC-enriched organoids [2] (dose 0.40 uM), 0.108; with ISC-enriched organoids [2] (dose 2.00 uM), 0.074; with ISC-enriched organoids [2] (dose 10.00 uM), −0.132. The “Z.CTG (standard z score)” value in the assay with ISC-enriched organoids [3] (dose 0.08 uM) is 1.222; in the assay with ISC-enriched organoids [3] (dose 0.40 uM), 0.725; in the assay on ISC-enriched organoids [3] (dose 2.00 uM), 0.552; with ISC-enriched organoids [3] (dose 10.00 uM), −0.574. Moreover, the “Dose.FC.CTG (log 2 fold change, ATP)” value is 0.512 in the assay on ISC-enriched organoids [3] (dose 0.08 uM), 0.304 in the assay on ISC-enriched organoids [3] (dose 0.40 uM), 0.231 in the assay on ISC-enriched organoids [3] (dose 2.00 uM) and −0.240 with ISC-enriched organoids [3] (dose 10.00 uM).

Turning to `COc1nc(C)cnc1NS(=O)(=O)c1cccnc1-c1ccc(-c2nnco2)cc1` [Zibotentan (ZD4054)], the “Z.LYZ.NS (standard z score)” value in the assay with ISC-enriched organoids [1] (dose 0.08 uM) was 0.820; in the assay on ISC-enriched organoids [1] (dose 0.40 uM), 0.474; in the assay on ISC-enriched organoids [1] (dose 2.00 uM), −0.029; with ISC-enriched organoids [1] (dose 10.00 uM) it was 0.877. The “Dose.FC.LYZ.NS (log 2 fold change, basal lysozyme secretion)” value in the assay on ISC-enriched organoids [1] (dose 0.08 uM) is given as 0.094; in the assay with ISC-enriched organoids [1] (dose 0.40 uM) it was 0.054; with ISC-enriched organoids [1] (dose 2.00 uM), −0.003; in the assay with ISC-enriched organoids [1] (dose 10.00 uM), 0.101. The “Dose.FC.LYZ.S (log 2 fold change, carbachol-induced lysozyme secretion)” value in the assay with ISC-enriched organoids [2] (dose 0.08 uM) is 0.168; in the assay with ISC-enriched organoids [2] (dose 0.40 uM), 0.130; with ISC-enriched organoids [2] (dose 2.00 uM) it was −0.038; in the assay with ISC-enriched organoids [2] (dose 10.00 uM), 0.050. Also, the “Z.CTG (standard z score)” value in the assay with ISC-enriched organoids [3] (dose 0.08 uM) is 0.249; with ISC-enriched organoids [3] (dose 0.40 uM), −0.022; in the assay on ISC-enriched organoids [3] (dose 2.00 uM), −1.834; in the assay on ISC-enriched organoids [3] (dose 10.00 uM), −0.003. Besides, the “Dose.FC.CTG (log 2 fold change, ATP)” value in the assay with ISC-enriched organoids [3] (dose 0.08 uM) is given as 0.104; in the assay with ISC-enriched organoids [3] (dose 0.40 uM) it was −0.009; in the assay with ISC-enriched organoids [3] (dose 2.00 uM), −0.768; in the assay on ISC-enriched organoids [3] (dose 10.00 uM) it was −0.001.
